Laboratory results reported in patent publication US6878713B2, “Generation triple-targeting, chiral, broad-spectrum antimicrobial 7-substituted piperidino-quinolone carboxylic acid derivatives, their preparation, compositions and use as medicaments” (Wockhardt Limited, priority 2001, dated 2005).
Converted amounts (≈) assume the structure as drawn. Read-outs that look alike come from different tables or passages of the source.

Tests used:
[1] = Phototoxicity (oral dose, UVA exposure, ear erythema and oedema); type: in vivo; conditions: Swiss Albino mice, UVA 4 hours for 4 consecutive days
Procedure: The stock solutions for different doses were prepared freshly on the day of experimentation. Appropriate concentration of each dose was chosen to give a constant dosage volume of 0.3-0.4 ml/20 g body weight of mouse. The treated mice were exposed to UVA light source immediately after dosing for 4 hours and for 4 consecutive days. The mean light intensity in the UVA chamber was adjusted to 0.9-1.2 mW/cm^2. […] A phototoxic dose is one which causes ear erythema and oeadema.

[2] = tested on: J 744 (mouse macrophage); test: Cytotoxicity test (Alamar blue), J 744 cells, Table 23; type: cell-based; conditions: 3 hrs drug exposure, further 96 hrs incubation
Procedure: Compounds were evaluated for their cytotoxic potential against two celllines viz. […] Cytotoxic drugs inhibit this reaction resulting into blue coloured well. Minimum drug concentration inhibiting Alamar blue color change i.e. resulting into blue coloured wells for a given drug is considered cytotoxic concentration.

[3] = tested on: Multidrug-Resistant (MDR) Pneumococcal Infections; test: In-vivo antimicrobial test, systemic infection model (mouse septicemia), Table 22; parameters: species or system Swiss male and female mice; conditions: Streptococcus pneumoniae, po, oral dosing 1 hour and 5 hours post-infection, survival on day 7, strain resistant to β-lactams, macrolides and fluoroquinolones, read-out: ED50 p.o., MDR S. pneumoniae 718
Procedure: The in vivo efficacy was studied through mouse septicemia model of infection in Swiss male and female mice (4 weeks old, 20+2 g weight) using 6 animals in each group. Infective organisms were inoculated intraperitonially. Compound were administered by oral route 1 hour and 5 hours post-infection. […] Appropriate comparators were included in the study.

[4] = tested on: Fluoroquinolone-Resistant Strains; test: In-vitro antimicrobial test (MIC, two-fold serial agar dilution, NCCLS), Table 18; type: cell-based
Procedure: (§1) The test method was in accordance with the standard NCCLS protocol (Methods for Dilution Antimicrobial Susceptibility Tests for Bacteria that grow Aerobicially, Approved Standards, M7-A5, Fifth Edition, January 2000).
(§2) The antibacterial activities (minimum inhibitory concentration: MIC, […]) were determined by using the two-fold serial agar dilution method recommended by NCCLS. The media used for preculture and main culture were Tryptic Soya broth (Difco) and Mueller Hinton medium (Difco), respectively. The Mueller Hinton agar was supplemented with 5% sheep blood for streptococci. Overnight cultures were diluted with buffered saline (pH 7.2) to the final cell density of 5×10^6-10^7 CFU/ml, and each bacterial suspension was applied with a replicator (Denley's multipoint inoculator, UK) onto a series of Mueller-Hinton agar plates containing antibacterial agents at various concentrations. Final inoculum was approximately 10^4 CFU/spot. The plates were incubated for 18 hrs at 37° C. The MIC was defined as the lowest concentration of an antibacterial agent that inhibits the development of visible microbial growth on agar.

[5] = tested on: Fluoroquinolone Sensitive Strains; test: In-vitro antimicrobial test (MIC, two-fold serial agar dilution, NCCLS), Table 17; type: cell-based
Procedure: as §1, §2

[6] = tested on: V79 (Chinese Hamster Lung); test: Cytotoxicity test (Alamar blue), V79 cells, Table 23; type: cell-based; conditions: 3 hrs drug exposure, further 96 hrs incubation
Procedure: Compounds were evaluated for their cytotoxic potential against two […] viz. […] Cells were grown for 3-4days in a culture flask using D-MEM (Dulbecco's Modified Eagle. […] Freshly grown cells were distributed in microtiter plates at a cell density of 10^5-10^6 cells/well and allowed to […] form monolayer by incubating the microtiter plate at […] for 24 hrs. […] Following 3 hrs. of drug exposure, cell were washed with D-MEM and incubated further for 96 hrs. Cytotoxic effects of drugs were monitored through daily microscopic observation and by ascertaining the metabolic status through redox indicator Alamar blue. Healthy actively metabolising cells bring about colour change of Alamar blue from blue to pink within an overnight incubation. Cytotoxic drugs inhibit this reaction resulting into blue coloured well. Minimum drug concentration inhibiting Alamar blue color change i.e. resulting into blue coloured wells for a given drug is considered cytotoxic concentration.

[7] = tested on: MRSA 5027; test: Resistance to resistance development (sequential passages through drug-containing media); type: cell-based; conditions: Staphylococcus aureus
[8] = tested on: Trovafloxacin-Resistant and Vancomycin-Resistant Enterococci; test: In-vitro antimicrobial test (MIC, two-fold serial agar dilution, NCCLS), Table 19; type: cell-based
Source text: The comparative antimicrobial activity of representative compounds, of the invention and reference compounds against various sensitive and resistant microorganisms is given in Tables 17 to 20. The test method was in accordance with the standard NCCLS protocol (Methods for Dilution Antimicrobial Susceptibility Tests for Bacteria that grow Aerobicially, Approved Standards, M7-A5, Fifth Edition, January 2000).
as §2

[9] = tested on: Clinical Isolate MRSA 5076 with Mutations in DNA Gyrase and Topoisomerase IV as well as bearing an Efflux Pump; test: microbe, parasite or virus in culture; type: cell-based; conditions: for MIC: Staphylococcus aureus, ATCC 25293 / MRSA, read-out: MICs, S. aureus (sensitive) ATCC 25293
Procedure: as §1, §2

[10] = Staphylococcus aureus, MRSA, MRSA 032
[11] = Streptococcus mitis, Cipro^R S. mitis 938
[12] = Streptococcus pneumoniae, FQ^R S. pneumoniae 718
[13] = Enterococcus faecalis, ATCC29212, E. faecalis ATCC 29212
[14] = Escherichia coli, ATCC25922, E. coli ATCC 25922
[15] = Pseudomonas aeruginosa, P. aeruginosa 27853
[16] = S. sanguis ATCC 10556 (Viridans Streptococci group)
[17] = Staphylococcus aureus, ATCC 25923 / MSSA, MSSA ATCC 25923
[18] = Streptococcus pneumoniae, ATCC49619, S. pneumoniae ATCC 49619
[19] = read-out: MIC against MRSA 5027, initially
[20] = read-out: MIC against MRSA 5027 after 10 passages in drug containing medium
[21] = Staphylococcus epidermidis, trovafloxacin-resistant methicillin-resistant S. epidermidis (MRSE) 110, 18 hrs at 37° C, read-out: MICs, Trova-Resist MRSE 110
[22] = vancomycin-resistant Enterococcus faecium (VRE) 336, 18 hrs at 37° C, read-out: MICs, VRE 336

SMILES	Cytotoxic concentration, J 744 Macrophage [2]	ED50 [3]	MIC ([4]; Cipro^R S. sanguis 941)	MIC [4, 10]	MIC [4, 11]	MIC [4, 12]	MIC [5, 13]	MIC [5, 14]	MIC [5, 15]	MIC [5, 16]	MIC [5, 17]	MIC [5, 18]	melting point	Cytotoxic concentration, V 79 CHL [6]	MIC [7, 19]	MIC [8, 21]	MIC [8, 22]	other results
C[C@@H]1CN(c2c(F)c(N)c3c(=O)c(C(=O)O)cn(C4CC4)c3c2F)C[C@H](C)N1 [sparfloxacin]	–	–	–	–	–	–	–	–	–	–	–	–	–	–	–	–	–	phototoxic dose [1]: 25 mg/kg
Cc1c(N2CC[C@H](N)[C@H](C)C2)c(F)cc2c(=O)c(C(=O)O)cn(C3CC3)c12.Cl (relative stereo) [Compound 100, cis-1-Cyclopropyl-6-fluoro-1,4-dihydro-8-methyl-7-(4-amino-3-methyl-1-piperidinyl)-4-oxo-quinoline-3-carboxylic acid hydrochloride]	1000 µg/mL	30 mg/kg	3.12 µg/mL	1.56 µg/mL	1.56 µg/mL	1.56 µg/mL	0.1 µg/mL	0.0012 µg/mL	3.12 µg/mL	0.025 µg/mL	0.025 µg/mL	0.05 µg/mL	255 to 260 °C	125 µg/mL	–	–	–	–
N[C@@H]1[C@H]2CN(c3nc4c(cc3F)c(=O)c(C(=O)O)cn4-c3ccc(F)cc3F)C[C@@H]12 [Trovafloxacin]	500 µg/mL	–	–	–	–	–	–	–	–	–	–	–	–	–	0.4 µg/mL (≈ 0.961 µM)	–	–	MIC [7, 20]: 50 µg/mL (≈ 120 µM)
Cc1c(N2CC[C@@H](O)[C@H](C)C2)c(F)cc2c(=O)c(C(=O)O)cn(C3CC3)c12 (relative stereo) [Compound 94, trans-1-Cyclopropyl-6-fluoro-8-methyl-7-(4-hydroxy-3-methyl-1-piperidinyl)-1,4-dihydro-4-oxo-quinoline-3-carboxylic acid]	>1000 µg/mL	–	0.4 µg/mL (≈ 1.07 µM)	0.2 µg/mL (≈ 0.534 µM)	0.4 µg/mL (≈ 1.07 µM)	0.8 µg/mL (≈ 2.14 µM)	0.1 µg/mL (≈ 0.267 µM)	0.2 µg/mL (≈ 0.534 µM)	3.12 µg/mL (≈ 8.33 µM)	0.025 µg/mL (≈ 0.0668 µM)	0.003 µg/mL (≈ 0.00801 µM)	0.025 µg/mL (≈ 0.0668 µM)	–	>1000 µg/mL	–	0.4 µg/mL (≈ 1.07 µM)	3.12 µg/mL (≈ 8.33 µM)	–
Cc1c(N2CCC(N)C(C)(C)C2)c(F)cc2c(=O)c(C(=O)O)cn(C3CC3)c12.Cl (single isomer, unassigned; (-)) [Compound 110, (−)-1-Cyclopropyl-6-fluoro-1,4-dihydro-8-methyl-7-(4-amino-3,3-dimethyl-1-piperidinyl)-4-oxo-quinoline-3-carboxylic acid hydrochloride]	–	20 mg/kg	–	–	–	–	–	–	–	–	–	–	300 °C	–	–	–	–	Cytotoxic concentration, J 744 Macrophage ([2]; hydrochloride): 1000 µg/mL; MICs ([4]; Cipro^R S. sanguis 941, hydrochloride): 1.56 µg/mL; MICs ([5]; E. coli ATCC 25922, hydrochloride): 0.025 µg/mL; MICs ([5]; E. faecalis ATCC 29212, hydrochloride): 0.05 µg/mL; MICs ([5]; MSSA ATCC 25923): 0.025 µg/mL; MICs ([5]; S. pneumoniae ATCC 49619, hydrochloride): 0.025 µg/mL; MIC [9]: 0.05 µg/mL; Cytotoxic concentration, V 79 CHL ([6]; hydrochloride): 250 µg/mL
COc1c(N2CCC(N)C(C)(C)C2)c(F)cc2c(=O)c(C(=O)O)cn(C3CC3)c12.Cl (racemic) [Compound 18, (±)-1-Cyclopropyl-6-fluoro-1,4-dihydro-8-methoxy-7-(4-amino-3,3-dimethyl-1-piperidinyl)-4-oxo-quinoline-3-carboxylic acid hydrochloride]	>1000 µg/mL	30 mg/kg	–	0.8 µg/mL	–	0.8 µg/mL	–	–	–	–	–	–	–	>1000 µg/mL	0.4 µg/mL	–	–	MIC [7, 20]: 0.4 µg/mL
Cc1c(N2CCC(O)C(C)(C)C2)c(F)cc2c(=O)c(C(=O)O)cn(C3CC3)c12 (racemic) [Compound 95, (±)-1-Cyclopropyl-6-fluoro-8-methyl-7-(4-hydroxy-3,3-dimethyl-1-piperidinyl)-1,4-dihydro-4-oxo-quinoline-3-carboxylic acid]	>1000 µg/mL	–	0.4 µg/mL (≈ 1.03 µM)	0.2 µg/mL (≈ 0.515 µM)	0.4 µg/mL (≈ 1.03 µM)	0.8 µg/mL (≈ 2.06 µM)	0.05 µg/mL (≈ 0.129 µM)	0.2 µg/mL (≈ 0.515 µM)	3.12 µg/mL (≈ 8.03 µM)	0.025 µg/mL (≈ 0.0644 µM)	0.003 µg/mL (≈ 0.00772 µM)	0.025 µg/mL (≈ 0.0644 µM)	–	>1000 µg/mL	–	0.4 µg/mL (≈ 1.03 µM)	3.12 µg/mL (≈ 8.03 µM)	MICs, MRSA 5076 + efflux inhibitor reserpine ([9]; MRSA 5076 with efflux inhibitor reserpine): 0.2 µg/mL; MIC [9]: 0.003 µg/mL (≈ 0.00772 µM)
Cc1c(N2CC[C@H](O)[C@H](C)C2)c(F)cc2c(=O)c(C(=O)O)cn(C3CC3)c12 (relative stereo) [Compound 93, cis-1-Cyclopropyl-6-fluoro-8-methyl-7-(4-hydroxy-3-methyl-1-piperidinyl)-1,4-dihydro-4-oxo-quinoline-3-carboxylic acid]	>1000 µg/mL	–	0.4 µg/mL (≈ 1.07 µM)	0.2 µg/mL (≈ 0.534 µM)	0.4 µg/mL (≈ 1.07 µM)	0.8 µg/mL (≈ 2.14 µM)	0.05 µg/mL (≈ 0.134 µM)	0.2 µg/mL (≈ 0.534 µM)	3.12 µg/mL (≈ 8.33 µM)	0.05 µg/mL (≈ 0.134 µM)	0.003 µg/mL (≈ 0.00801 µM)	0.025 µg/mL (≈ 0.0668 µM)	206 to 210 °C	>1000 µg/mL	–	0.4 µg/mL (≈ 1.07 µM)	3.12 µg/mL (≈ 8.33 µM)	–
COc1c(N2C[C@@H]3CCCN[C@@H]3C2)c(F)cc2c(=O)c(C(=O)O)cn(C3CC3)c12 [Moxifloxacin, reference compound]	–	> 100 mg/kg	–	–	–	–	0.2 µg/mL (≈ 0.498 µM)	0.05 µg/mL (≈ 0.125 µM)	–	0.4 µg/mL (≈ 0.996 µM)	0.05 µg/mL (≈ 0.125 µM)	0.2 µg/mL (≈ 0.498 µM)	–	–	0.4 µg/mL (≈ 0.996 µM)	–	–	–
